Values of other authors in patent US20030040489A1, “Process for producing l-arabinose, l-arabinose-containing enzymatically processed products, diet foods, diabetic diet foods and fruit or vegetable juices and process for producting the same” (priority 1999, published 2003).

System: disaccharide-decomposing enzymes (maltase, sucrase, etc.)
Settings: enzymes of duodenal and small intestinal mucosae

- mode of inhibition of disaccharide-decomposing enzymes: uncompetitively inhibits
Structure (SMILES): O=C[C@H](O)[C@@H](O)[C@@H](O)CO [L-arabinose]
